Data reported in paper PMC8310135 (Viruses, 2021).
Where a name gives a salt, the structure may show the parent alone. Read-outs that look alike come from different tables or passages of the source.

Legend:
[1] = system: rLUJV/ZsG; test: microbe, parasite or virus in culture; format: cell-based, Lujo virus; conditions: for activity at 0.05 µM / activity at 0.5 µM / activity at 5 µM: Huh-7, read-out: Relative ZsG (%) Mean
[2] = system: Huh7 cells; conditions: for CC50: human
[3] = in vitro; conditions: human; for CC50: CC50 (50% cell cytotoxicity concentration)
[4] = Mammarenavirus lujoense, Huh-7, read-out: EC50 (concentration inhibiting ZsG expression by 50%)
[5] = Mammarenavirus lujoense, 500 nM
[6] = Mammarenavirus lujoense, 5000 nM
[7] = read-out: EC50 (concentration inhibiting ZsG expression by 50%)

SMILES | Relative ZsG (%) Mean ([1]; 50 nM) [%] | Relative ZsG (%) Mean ([1]; 500 nM) [%] | Relative ZsG (%) Mean ([1]; 5000 nM) [%] | Cell Viability (%) Mean ([2]; 50 nM) [%] | Cell Viability (%) Mean ([2]; 500 nM) [%] | Cell Viability (%) Mean ([2]; 5000 nM) [%] | SI (selectivity index, CC50 divided by EC50) [1] | EC50 [1, 4] [µM] | activity at 0.05 µM ([1]; Mammarenavirus lujoense, 50 nM) [%] | activity at 0.5 µM [1, 5] [%] | activity at 5 µM [1, 6] [%] | EC50 [1, 7] [µM] | CC50 [2] [µM] | viability at 0.05 µM [3] [%] | viability at 0.5 µM [3] [%] | viability at 5 µM [3] [%] | CC50 [3] [µM]
C[C@H](Cn1cnc2c(N)ncnc21)OCP(=O)(O)O [Tenofivir] | 114 | 138 | 96 | 101 | 100 | 100 |  |  |  |  |  |  |  |  |  |  | 
C#C[C@@]1(O)[C@H](O)[C@@H](CO)O[C@H]1n1ccc2c(N)ncnc21 [NITD008] | 122 | 110 | 136 | 99 | 96 | 97 |  |  |  |  |  |  |  |  |  |  | 
COc1ccc(-n2cnc3cc(NCc4ccc(C(C)C)cc4)ccc32)cc1 [ST-193] | 107 | 102 | 91 | 105 | 98 | 101 |  |  |  |  |  |  |  |  |  |  | 
CCCCCCCCCCCCCCCCn1cc[n+](Cc2ccccc2)c1C.[I-] [NH125] | 60 | 28 | 2 | 104 | 63 | 1 |  |  |  |  |  |  |  |  |  |  | 
CC/C(=C(\c1ccccc1)c1ccc(OCCN(C)C)cc1)c1ccccc1 [Tamoxifene citrate] |  |  |  |  |  |  | 2.1 | 3.59 ± 0.72 | 84 | 78 | 2 | 3.59 ± 0.724 | 7.37 ± 1.04 | 123 | 123 | 85 | 7.37 ± 1.04
CC(C)OC(=O)[C@H](C)N[P@@](=O)(OC[C@H]1O[C@@H](n2ccc(=O)[nH]c2=O)[C@](C)(F)[C@@H]1O)Oc1ccccc1 [PSI-7976] | 96 | 80 | 124 | 94 | 99 | 107 |  |  |  |  |  |  |  |  |  |  | 
Nc1cccc(-c2cc3c(Oc4cccc(O)c4)ncnc3[nH]2)c1 [TWS119] | 74 | 74 | 13 | 135 | 124 | 36 |  |  |  |  |  |  |  |  |  |  | 
O=C(c1ccc(OCCN2CCCCC2)cc1)c1c(-c2ccc(O)cc2)sc2cc(O)ccc12 [Raloxifene (Evista), Raloxifene] |  |  |  |  |  |  | 6.2 | 1.5 ± 0.793 | 87 | 89 | 3 |  | 9.29 ± 1.31 | 139 | 136 | 86 | 9.3 ± 1.3
Cc1c(-c2ccc(O)cc2)n(Cc2ccc(OCCN3CCCCCC3)cc2)c2ccc(O)cc12 [Bazedoxifene HCL] |  |  |  |  |  |  | 3.9 | 1.72 ± 0.79 | 110 | 103 | 2 | 1.72 ± 0.481 | 6.68 ± 2.08 | 141 | 147 | 84 | 6.68 ± 2.08
[N-]=[N+]=N[C@]1(CO)O[C@@H](n2ccc(N)nc2=O)[C@H](O)[C@@H]1O [R-1479] | 118 | 100 | 103 | 104 | 101 | 96 |  |  |  |  |  |  |  |  |  |  | 
C[C@@]1(O)[C@H](O)[C@@H](CO)O[C@H]1n1ccc2c(N)ncnc21 [7-DMA] | 96 | 95 | 92 | 98 | 103 | 113 |  |  |  |  |  |  |  |  |  |  | 
COC1=CC(c2cc3ccccc3[nH]2)=N/C1=C\c1[nH]c(C)cc1C [Obatoclax] |  |  |  |  |  |  | 4.2 | 0.36 ± 0.1 | 36 | 4 | 10 | 0.355 ± 0.105 | 1.5 ± 0.332 | 130 | 25 | 2 | 1.5 ± 0.33
CC(C)C(=O)OC[C@H]1O[C@@H](n2ccc(N)nc2=O)[C@](C)(F)[C@@H]1OC(=O)C(C)C [R-7128] | 133 | 80 | 126 | 100 | 98 | 103 |  |  |  |  |  |  |  |  |  |  | 
C[C@@]1(F)[C@H](O)[C@@H](CO)O[C@H]1n1ccc(=O)[nH]c1=O [PSI-6206] | 141 | 87 | 128 | 103 | 96 | 104 |  |  |  |  |  |  |  |  |  |  | 
[N-]=[N+]=N[C@]1(CO)O[C@@H](n2ccc(N)nc2=O)[C@@H](O)[C@@H]1O [R09187] | 116 | 122 | 88 | 99 | 98 | 102 |  |  |  |  |  |  |  |  |  |  | 
C[C@@]1(F)[C@H](O)[C@@H](CO)O[C@H]1n1ccc(N)nc1=O [PSI-6130] | 149 | 90 | 114 | 100 | 96 | 99 |  |  |  |  |  |  |  |  |  |  | 
Cc1ccc(Nc2nccc(N(C)c3ccc4c(C)n(C)nc4c3)n2)cc1S(N)(=O)=O.Cl [Pazopanib HCl] | 77 | 59 | 24 | 134 | 116 | 54 |  |  |  |  |  |  |  |  |  |  | 
O=c1cnn([C@@H]2O[C@H](CO)[C@@H](O)[C@H]2O)c(=S)[nH]1 [6-aza-2-thiouridine] |  |  |  |  |  |  |  |  | 134 | 139 | 112 |  |  | 104 | 96 | 103 | 
Cl.Fc1ccc([C@@H]2CCNC[C@H]2COc2ccc3c(c2)OCO3)cc1 [Paroxetine HCl] | 93 | 83 | 48 | 138 | 145 | 110 |  |  |  |  |  |  |  |  |  |  | 
COc1cc2ncnc(Nc3cccc(Cl)c3)c2cc1OC [Tyrphostin AG1478] |  |  |  |  |  |  |  |  | 80 | 73 | 87 |  |  | 120 | 101 | 111 | 
Clc1ccc(COC(Cn2ccnc2)c2ccc(Cl)cc2Cl)c(Cl)c1 (stereo not shown) [Miconazole nitrate] |  |  |  |  |  |  |  |  | 65 | 78 | 47 |  |  | 119 | 120 | 67 | 
C[C@@]1(O)[C@H](O)[C@@H](CO)O[C@H]1n1ccc(=O)[nH]c1=O [2ʹ-C-methyluridine] |  |  |  |  |  |  |  |  | 132 | 142 | 126 |  |  | 102 | 100 | 97 | 
Cc1cn([C@@H]2O[C@H](CO)[C@@H](O)[C@H]2O)c(=O)nc1N [5-methylcytidine] |  |  |  |  |  |  |  |  | 122 | 129 | 108 |  |  | 96 | 97 | 98 | 
O=C1CCc2ccc(OCCCCN3CCN(c4cccc(Cl)c4Cl)CC3)cc2N1 [Aripiprazole] |  |  |  |  |  |  |  |  | 71 | 81 | 16 |  |  | 124 | 126 | 59 | 
